From patent US10781224B2, “Bis(oxymethyl)phosphinic acid and biogenic metal salts thereof as regulators of plant growth and development” (priority 2016, dated 2020)

How the values were obtained:
[1] = tested on: winter wheat (Vershin variety); assay: Winter wheat seed treatment with BHMPA salts: germinating power (length and mass of roots and sprouts); type: in vivo
Procedure: (§1) Experimental versions—soaking seeds in BHMPA solutions and solutions of BHMPA Ca, Mg, Na, Co, Mn, Cu, and Zn salts at 1·10^−6-1·10^−12% concentrations (doses). The studies were conducted in laboratory in Petri dishes; seed bed—two layers of filter paper. 50 seeds soaked in water (control) and in the solutions of the tested compounds (experimental) were placed into each dish. Wheat, corn, and rice seeds were exposed for one hour.
(§2) Seed germination energy and rate were calculated in percent as an arithmetic mean of the four experimental results (germination energy on the 4th day, wheat germination on the 8th day, rice and corn germination—on the 7th day). Germination was determined based on the germinating power indicators (length of the roots and sprouts and their wet and dry mass per 100 shoots).
(§3) The effect of pre-sowing seed treatment with the claimed BHMPA salts of biogenic metals was studied on winter wheat (Vershin variety), corn (Krasnodar 385 MV variety), and rice (Diamant variety).
The above data describe the seed viability only at the initial stage of germination, while the germination ability at the later stage of germination is defined by the initial germinating power. The method for the determination of the germinating power comprises measuring the height of the sprouts and primary roots, as well as the biomass and the dry mass thereof per 100 seedlings. [M. A. Kartuzova. Initial Germinating Power as Method of Biological Assessment of Seed Quality. Selection and Seed Farming, #2, 1953].

[2] = tested on: rice (Diamant variety); assay: Rice seed treatment with BHMPA salts: germination energy and germination rate; type: in vivo
Procedure: Control—Soaking Seeds in Water;
as §1
Analysis was conducted according to the government standards GOST 12038-84 “Crop seeds. Technical conditions for determining the germination energy and germination rate”, GOST 12044-93 “Crop seeds. Methods for determining disease contamination.”
as §2, §3

[3] = comparative study, 1·10^−10% solution
[4] = rice seed treatment, solution 1 · 10^−9%
[5] = seed treatment, concentration 1 · 10^−6%
[6] = seed treatment, concentration 1 · 10^−7%
[7] = seed treatment, concentration 1 · 10^−8%
[8] = seed treatment, concentration 1 · 10^−9%
[9] = seed treatment, concentration 1 · 10^−10%
[10] = seed treatment, concentration 1 · 10^−11%
[11] = seed treatment, concentration 1 · 10^−12%

O.O.O=P([O-])(CO)CO.O=P([O-])(CO)CO.[Co+2] [Co-salt, Cobalt BHMPA Salt]
Length, root ([1]; 1·10^−6% solution): 6.0 cm | Length, root, + % to control ([1]; 1·10^−6% solution): −5% | Length, sprout ([1]; 1·10^−6% solution): 5.1 cm | Length, sprout, + % to control ([1]; 1·10^−6% solution): −4% | Mass, dry, root ([1]; 1·10^−6% solution): 0.43 g/100 plantlings | Mass, dry, root, + % to control ([1]; 1·10^−6% solution): −6.5% | Mass, dry, sprout ([1]; 1·10^−6% solution): 0.41 g/100 plantlings | Mass, dry, sprout, + % to control ([1]; 1·10^−6% solution): −9% | Mass, wet, root ([1]; 1·10^−6% solution): 2.99 g/100 plantlings | Mass, wet, root, + % to control ([1]; 1·10^−6% solution): 3.5% | Mass, wet, sprout ([1]; 1·10^−6% solution): 3.30 g/100 plantlings | Mass, wet, sprout, + % to control ([1]; 1·10^−6% solution): −3.5% | Length, root ([1]; 1·10^−7% solution): 6.3 cm | Length, root, + % to control ([1]; 1·10^−7% solution): 0% | Length, sprout ([1]; 1·10^−7% solution): 5.4 cm | Length, sprout, + % to control ([1]; 1·10^−7% solution): 2% | Mass, dry, root ([1]; 1·10^−7% solution): 0.50 g/100 plantlings | Mass, dry, root, + % to control ([1]; 1·10^−7% solution): 9% | Mass, dry, sprout ([1]; 1·10^−7% solution): 0.45 g/100 plantlings | Mass, dry, sprout, + % to control ([1]; 1·10^−7% solution): 0% | Mass, wet, root ([1]; 1·10^−7% solution): 3.06 g/100 plantlings | Mass, wet, root, + % to control ([1]; 1·10^−7% solution): 6% | Mass, wet, sprout ([1]; 1·10^−7% solution): 3.47 g/100 plantlings | Mass, wet, sprout, + % to control ([1]; 1·10^−7% solution): 1.5% | Length, root ([1]; 1·10^−8% solution): 6.4 cm | Length, root, + % to control ([1]; 1·10^−8% solution): 1.6% | Length, sprout ([1]; 1·10^−8% solution): 5.5 cm | Length, sprout, + % to control ([1]; 1·10^−8% solution): 4% | Mass, dry, root ([1]; 1·10^−8% solution): 0.54 g/100 plantlings | Mass, dry, root, + % to control ([1]; 1·10^−8% solution): 17% | Mass, dry, sprout ([1]; 1·10^−8% solution): 0.53 g/100 plantlings | Mass, dry, sprout, + % to control ([1]; 1·10^−8% solution): 18% | Mass, wet, root ([1]; 1·10^−8% solution): 3.29 g/100 plantlings | Mass, wet, root, + % to control ([1]; 1·10^−8% solution): 14% | Mass, wet, sprout ([1]; 1·10^−8% solution): 3.74 g/100 plantlings | Mass, wet, sprout, + % to control ([1]; 1·10^−8% solution): 9% | Length, root ([1]; 1·10^−9% solution): 6.5 cm | Length, root, + % to control ([1]; 1·10^−9% solution): 3% | Length, sprout ([1]; 1·10^−9% solution): 5.7 cm | Length, sprout, + % to control ([1]; 1·10^−9% solution): 7.5% | Mass, dry, root ([1]; 1·10^−9% solution): 0.55 g/100 plantlings | Mass, dry, root, + % to control ([1]; 1·10^−9% solution): 19.5% | Mass, dry, sprout ([1]; 1·10^−9% solution): 0.57 g/100 plantlings | Mass, dry, sprout, + % to control ([1]; 1·10^−9% solution): 27% | Mass, wet, root ([1]; 1·10^−9% solution): 3.35 g/100 plantlings | Mass, wet, root, + % to control ([1]; 1·10^−9% solution): 16% | Mass, wet, sprout ([1]; 1·10^−9% solution): 4.04 g/100 plantlings | Mass, wet, sprout, + % to control ([1]; 1·10^−9% solution): 18% | Length, root ([1]; 1·10^−10% solution): 6.6 cm | Length, root, + % to control ([1]; 1·10^−10% solution): 5% | Length, sprout ([1]; 1·10^−10% solution): 6.1 cm | Length, sprout, + % to control ([1]; 1·10^−10% solution): 15% | Mass, dry, root ([1]; 1·10^−10% solution): 0.56 g/100 plantlings | Mass, dry, root, + % to control ([1]; 1·10^−10% solution): 22% | Mass, dry, sprout ([1]; 1·10^−10% solution): 0.67 g/100 plantlings | Mass, dry, sprout, + % to control ([1]; 1·10^−10% solution): 49% | Mass, wet, root ([1]; 1·10^−10% solution): 3.57 g/100 plantlings | Mass, wet, root, + % to control ([1]; 1·10^−10% solution): 23.5% | Mass, wet, sprout ([1]; 1·10^−10% solution): 4.18 g/100 plantlings | Mass, wet, sprout, + % to control ([1]; 1·10^−10% solution): 22% | Length, root ([1]; 1·10^−11% solution): 6.5 cm | Length, root, + % to control ([1]; 1·10^−11% solution): 3% | Length, sprout ([1]; 1·10^−11% solution): 5.9 cm | Length, sprout, + % to control ([1]; 1·10^−11% solution): 11% | Mass, dry, root ([1]; 1·10^−11% solution): 0.54 g/100 plantlings | Mass, dry, root, + % to control ([1]; 1·10^−11% solution): 17% | Mass, dry, sprout ([1]; 1·10^−11% solution): 0.56 g/100 plantlings | Mass, dry, sprout, + % to control ([1]; 1·10^−11% solution): 24% | Mass, wet, root ([1]; 1·10^−11% solution): 3.33 g/100 plantlings | Mass, wet, root, + % to control ([1]; 1·10^−11% solution): 15% | Mass, wet, sprout ([1]; 1·10^−11% solution): 3.78 g/100 plantlings | Mass, wet, sprout, + % to control ([1]; 1·10^−11% solution): 10.5% | Length, root ([1]; 1·10^−12% solution): 6.2 cm | Length, root, + % to control ([1]; 1·10^−12% solution): −1.5% | Length, sprout ([1]; 1·10^−12% solution): 5.4 cm | Length, sprout, + % to control ([1]; 1·10^−12% solution): 2% | Mass, dry, root ([1]; 1·10^−12% solution): 0.52 g/100 plantlings | Mass, dry, root, + % to control ([1]; 1·10^−12% solution): 13% | Mass, dry, sprout ([1]; 1·10^−12% solution): 0.48 g/100 plantlings | Mass, dry, sprout, + % to control ([1]; 1·10^−12% solution): 7% | Mass, wet, root ([1]; 1·10^−12% solution): 3.06 g/100 plantlings | Mass, wet, root, + % to control ([1]; 1·10^−12% solution): 6% | Mass, wet, sprout ([1]; 1·10^−12% solution): 3.49 g/100 plantlings | Mass, wet, sprout, + % to control ([1]; 1·10^−12% solution): 2% | Length, root [1, 3]: 10.4 cm | Length, root, + % to control [1, 3]: 20% | Length, sprout [1, 3]: 7.4 cm | Length, sprout, + % to control [1, 3]: 19% | Mass, dry, root [1, 3]: 0.68 g/100 plantlings | Mass, dry, root, + % to control [1, 3]: 10% | Mass, dry, sprout [1, 3]: 0.55 g/100 plantlings | Mass, dry, sprout, + % to control [1, 3]: 8% | Mass, wet, root [1, 3]: 5.97 g/100 plantlings | Mass, wet, root, + % to control [1, 3]: 65% | Mass, wet, sprout [1, 3]: 5.16 g/100 plantlings | Mass, wet, sprout, + % to control [1, 3]: 30% | Germination energy, % [2, 4]: 87.5% | Germination rate, % [2, 4]: 94.5% | Germination energy ([2]; rice, 1·10^−9% solution): 86.3% | Germination rate ([2]; rice, 1·10^−9% solution): 93.7% | Germination energy [2, 5]: 80.7% | Germination rate [2, 5]: 84.0% | Germination energy [2, 6]: 83.0% | Germination rate [2, 6]: 87.0% | Germination energy [2, 7]: 84.0% | Germination rate [2, 7]: 90.3% | Germination energy [2, 8]: 86.3% | Germination rate [2, 8]: 93.7% | Germination energy [2, 9]: 85.7% | Germination rate [2, 9]: 91.3% | Germination energy [2, 10]: 84.0% | Germination rate [2, 10]: 88.0% | Germination energy [2, 11]: 81.3% | Germination rate [2, 11]: 85.3%
